Reference: patent US10945972B2, “Particulate materials” (Nektar Therapeutics, priority 2002, dated 2021)
Where two headings read alike, the source gives them in different places.

What was measured:
[1] = BET nitrogen adsorption specific surface area (Example 2); format: physicochemical
Experimental: Data on specific surface areas required for IGC studies were determined by BET nitrogen adsorption using a Surface Area Analyzer Coulter SA 3100 (Coulter Corp., Miami, Fla., USA). Samples were placed in glass sample holders and out-gassed with helium (purity >99.999%) at 40° C. for 16 hours before analysis. Nitrogen (purity >99.999%) was used as adsorbate and BET surface area was recorded as specific surface area of the samples. All measurements were performed in triplicate using the same batch of each material.

[2] = Inverse gas chromatography of SX powders (Example 2); conditions: for KA: acidity parameter; for γs^D (mJ/m^2): column at 40° C.; for −ΔGA^SP (kJ/mol) Acetone: probe acetone; for −ΔGA^SP (kJ/mol) Chloroform: probe chloroform; for −ΔGA^SP (kJ/mol) Diethyl ether: probe diethyl ether; for −ΔGA^SP (kJ/mol) Ethyl acetate: probe ethyl acetate; for −ΔGA^SP (kJ/mol) Tetrahydrofuran: probe tetrahydrofuran
[3] = Particle size by AeroSizer time-of-flight (Example 1); format: physicochemical; conditions: aerodynamic-equivalent volume mean diameter
Experimental: (§1) PSD measurements were performed using firstly, AEROSIZER® time-of-flight instrument equipped with AERO-[…]® (TSI Inc., Minneapolis. USA) and secondly, laser diffraction sensor Helos with dry-powder air-dispersion system Rodos (Sympatec GmbH. Germany). The volume mean particle diameter, VMD, was obtained for both instruments using software options. In the general case of non-spherical particles, these instruments cannot provide the exact value of VMD, however, the time-of-flight technique gives an aerodynamic-equivalent particle diameter, whereas the laser diffraction method provides the geometric projection-equivalent diameter. These diameters afford the complementary information on PSD and therefore can be used for comparative size analysis.

[4] = Particle size by Helos/Rodos laser diffraction (Example 1); format: physicochemical; conditions: geometric projection-equivalent volume mean diameter
Experimental: as §1

[5] = Inverse gas chromatography surface energy (Example 1); format: physicochemical; conditions: 303K; for ΔGA (kJ/mol) Diethyl ether: probe diethyl ether
Text: For TBS and FHBr powders, IGC was done using a Hewlett Packard Series 6890 instrument which was specifically modified for IGC measurements by Surface Measurement Systems Ltd (Manchester, UK). The IGC method is described in detail by Tong et al. 2001. (Tong H. H. Y., B. Y. Shekunov, P. York, A. H. L. Chow, 2001. Pharm. Res. 18, 852.) Triplicate measurements in separate packed columns were made. […] The γS^D and ΔGA values were obtained at 303K.

[6] = Laser diffraction particle size analysis HELOS/RODOS (Example 2); format: physicochemical; conditions: for mean particle size d4,3: LD technique
Experimental: The instrument consisted of laser diffraction sensor HELOS and dry-powder air-dispersion system RODOS (Sympatec GmbH. Germany) with WINDOX OS computer interface. The dispersion process was controlled by means of adjusting pressure of the compressed air flow between 0.5 and 5 bar. […] All measurements were performed in triplicate. The particle shape factor, f, was calculated as f=Sv/Sv*. where Sv is the experimental specific surface area and Sv* is the specific surface area determined using the LD instrument assuming the particle sphericity.

[7] = Triboelectrification in turbula mixer, charge and adhesion; format: physicochemical; conditions: for Q (nCg^−1) After mixing: 5 minutes at 30 rpm
Experimental: (§2) Triboelectrification was undertaken against a stainless steel contact surface using either a turbula mixer or a cyclone separator. Triboelectrification in a turbula mixer (Glen Creston, UK) was carried out by agitating a powder sample for 5 minutes at 30 rpm in a 100 ml stainless steel vessel at ambient temperature and relative humidity. A sample was poured in a reproducible manner into a Faraday well connected to an electrometer (Keithley 610, Keithley Instruments, Reading, UK). Charge and mass of sample was then recorded to give specific charge before and after triboelectrification. % w/w adhesion to the inner surface of the mixing vessel was calculated from the original mass of sample and the mass of sample poured into the Faraday well. During triboelectrification in a cyclone separator, a powder was fed from a steel vibratory table into a venturi funnel. Compressed air (velocity 8 m/s. relative humidity below 10%, ambient temperature) was used to convey the powder from the venturi along a horizontal pipe into the cyclone separator. The Faraday well and force compensation load cell was fitted at the base of the cyclone and used to collect charged particles. Final specific charge was recorded for non-adhered powder residing in the Faraday well and, where possible, powder adhering to the cyclone wall was dislodged by a stream of air and its charge and mass recorded. In both cases, the results were obtained from triplicate measurements.

[8] = Triboelectrification in cyclone separator, charge and adhesion; format: physicochemical
Experimental: as §2

[9] = Bulk powder density (Example 2); format: physicochemical
[10] = Electrostatic charge in Faraday well (Example 3); format: physicochemical
Text: Surface charge was examined by placing weighed portions of the samples in a Faraday well to measure their electrostatic charge.

[11] = Simple adhesion test in rotated glass jar (Example 3); format: physicochemical; conditions: glass jar rotated for 5 minutes
Experimental: In this test, a small quantity of powder was weighed into a screw topped glass jar and the jar rotated for 5 minutes. The non-adhering powder was then tipped from the jar and weighed and the percentage powder adhering to the walls of the jar calculated.

[12] = Laser diffraction HELOS/RODOS of TBS (Example 8); format: physicochemical; conditions: 2 bar
Experimental: A small amount of TBS powder was analysed using a laser diffraction RODOS/VIBRI dispersing system (HELOS/RODOS, Sympatec GmbH, Clausthal-Zellerfeld, Germany). The instrument consisted of a laser sensor HELOS and a RODOS dry-powder air-dispersion system (Sympatec GmbH, Clausthal-Zellerfeld, Germany). Different measurement ranges of the laser sensor were provided by interchangeable objectives R1 (0.1-35 μm) and R2 (0.25-87.5 μm). The rate of powder dispersion was controlled by adjusting the pressure of the compressed air flow. A pressure of 2 bar was sufficient to achieve deagglomeration of primary particles without attrition.

[13] = AEROSIZER time-of-flight of TBS (Example 8); format: physicochemical
Experimental: The TBS samples were also analysed using an AEROSIZER™ (Amherst Process Instruments, Amherst, Mass., USA), provided with pulse jet disperser, the AERODISPERSER™, to introduce the powders to the instrument. The measurement range of the AEROSIZER™ is nominally from 0.2 to 200 μm of aerodynamic diameter with the standard 750 μm diameter tapered nozzle. The micronized and SEDS™ TBS samples were analyzed for 300 seconds in triplicate using normal deagglomeration conditions, feed rate (5000 particles per second) and medium shear force (0.5 psi).

[14] = Differential scanning calorimetry (Example 8); format: physicochemical; conditions: DSC, 10° C. min^−1
Experimental: Prior to sample analysis, a baseline was obtained which was used as a background. […] Temperature and enthalpy were calibrated with the standard materials indium (melting point=156.6° C.) and zinc (melting point=419.5° C.). Samples (1-10) were accurately weighed into pierced, crimped aluminium pans and heated at 10° C. min^−1 over a heating range of 25-290° C. under a nitrogen purge. A chiller unit was used in conjunction with the calorimeter to attain the lower temperatures.

[15] = Inverse gas chromatography of TBS (Example 8); format: physicochemical
Experimental: An empty GC column was uniformly packed with the powder of interest (TBS). Pre-silanized commercially available straight glass columns of 30 cm length with a 3 mm internal diameter were used in this investigation. The silanation procedure was necessary to minimize active sites on the inner glass surfaces, which strongly interact with polar probes. Each column was packed at the detector end with a small amount of silanised glass wool, was clipped to a stand and powder was added through a glass funnel with the aid of a mechanical column packer (tapping) to improve powder flow and remove any air gaps. […] A. Hewlett Packard 6890 Series Gas Chromatograph (GC) (Hewlett Packard, Penna, USA) oven equipped with an autosampler was used to control the solvent temperature. The 6890 GC data acquisition system was used to record data from a thermal conductivity detector (TCD) and flame ionisation detector (FID) with the instrument modified for IGC by Surface Measurement Systems (SMS), Manchester, UK. The combination of detectors allowed sensitive analysis of both organic vapour elution and water (although RH was not raised above 0% for these experiments).
The whole system was fully automated by control software (SMS iGC Controller v1.3) and the data analyzed using SMS iGC Analysis macros. Prior to analysis, each column was equilibrated at 30° C. and 0% relative humidity (RH) for 5 hours by passing dry helium gas through the column. Helium gas was also used as the carrier gas. Hydrogen and compressed air flow rates were set at 40 and 450 ml min respectively for the FID. The chromatograph injection port was maintained at 80° C., TCD detector at 150° C. and the FID detector at 150° C. Column temperature was set at 30° C. throughout analysis. Data were obtained by flowing helium gas at 10 ml min^−1 through the sinalized glass column packed with a known weight of powdered material and injecting small amounts (concentration P/Po=0.05) of a range of probe vapors with different polarities. The retention times of the probes were measured using SMS iGC Controller v1.3 software, at infinite dilution or near zero surface coverage (equivalent to 10^−4-10^−7 μl of liquid) where retention is independent of the quantity of probe injected. For each sample, two columns were prepared and analysed by employing a method based on standard settings, which allows the precise control and measurement of experimental variables. This is essential in producing meaningful results. The data were used to calculate the dispersive and non-dispersive forces acting at TBS particle surfaces using the method developed by Schultz and co-workers (J. Schultz, L. Lavielle and C. Martin. The role of the interface in carbon fibre-epoxy composites, J. Adhesion, 23, 45-60 (1987)).

OCc1cc(C(O)CNCCCCCCOCCCCc2ccccc2)ccc1O (centres unmarked) [G-SX, Salmeterol xinafoate]
SV (specific surface area) [1]: 10.699
KA [2]: 0.233
γs^D (mJ/m^2) [2]: 36.972 mJ/m^2
−ΔGA^SP (kJ/mol) Acetone [2]: 5.454 kJ/mol
−ΔGA^SP (kJ/mol) Chloroform [2]: 1.885 kJ/mol
−ΔGA^SP (kJ/mol) Diethyl ether [2]: 2.958 kJ/mol
−ΔGA^SP (kJ/mol) Ethyl acetate [2]: 4.739 kJ/mol
−ΔGA^SP (kJ/mol) Tetrahydrofuran [2]: 4.854 kJ/mol

OCc1cc(C(O)CNCCCCCCOCCCCc2ccccc2)ccc1O (centres unmarked) [SX Micronised, salmeterol xinafoate, reference compound]
VMD (μm) (Time of flight) [3]: 1.2 μm
VMD (μm) (laser diffraction) [4]: 1.69 μm
γs^D (mJ/m^2) [5]: 40.49 mJ/m^2
ΔGA (kJ/mol) Acetone ([5]; probe acetone): 15.24 kJ/mol
ΔGA (kJ/mol) Chloroform ([5]; probe chloroform): 14.78 kJ/mol
ΔGA (kJ/mol) Diethyl ether [5]: 14.20 kJ/mol
ΔGA (kJ/mol) Ethyl acetate ([5]; probe ethyl acetate): 17.46 kJ/mol
SV (specific surface area) ([1]; listed as M-SX): 9.243
mean particle size d4,3 ([6]; listed as M-SX): 1.8 μm
f (particle shape factor, f=Sv/Sv*) ([6]; listed as M-SX): 2.80
Q (nCg^−1) After mixing ([7]; listed as M-SX): −42.6 nCg^−1
AD (% w/w), fraction of adhered material ([7]; listed as M-SX): 27 % w/w
Q (nCg^−1) Before mixing ([7]; listed as M-SX): −12.1 nCg^−1
AD (% w/w), fraction of adhered material ([8]; listed as M-SX): 16.7 % w/w
Q (nCg^−1) After mixing ([8]; listed as M-SX): −49.7 nCg^−1
Q (nCg^−1) Before mixing ([8]; listed as M-SX): −48.4 nCg^−1
bulk powder density ([9]; listed as M-SX): 0.5 g/mL
KA ([2]; listed as M-SX): 0.172
γs^D (mJ/m^2) ([2]; listed as M-SX): 38.285 mJ/m^2
−ΔGA^SP (kJ/mol) Acetone ([2]; listed as M-SX): 4.560 kJ/mol
−ΔGA^SP (kJ/mol) Chloroform ([2]; listed as M-SX): 0.810 kJ/mol
−ΔGA^SP (kJ/mol) Diethyl ether ([2]; listed as M-SX): 2.774 kJ/mol
−ΔGA^SP (kJ/mol) Ethyl acetate ([2]; listed as M-SX): 3.995 kJ/mol
−ΔGA^SP (kJ/mol) Tetrahydrofuran ([2]; listed as M-SX): 3.609 kJ/mol

OCc1cc(C(O)CNCCCCCCOCCCCc2ccccc2)ccc1O (centres unmarked) [SX SEDS, salmeterol xinafoate]
VMD (μm) (Time of flight) [3]: 1.6 μm
VMD (μm) (laser diffraction) [4]: 3.56 μm
γs^D (mJ/m^2) [5]: 34.55 mJ/m^2
ΔGA (kJ/mol) Diethyl ether [5]: 12.65 kJ/mol
SV (specific surface area) ([1]; listed as S-SX): 7.040
mean particle size d4,3 ([6]; listed as S-SX): 3.5 μm
f (particle shape factor, f=Sv/Sv*) ([6]; listed as S-SX): 3.78
Q (nCg^−1) After mixing ([7]; listed as S-SX): −0.17 nCg^−1
AD (% w/w), fraction of adhered material ([7]; listed as S-SX): 1.5 % w/w
Q (nCg^−1) Before mixing ([7]; listed as S-SX): −0.52 nCg^−1
AD (% w/w), fraction of adhered material ([8]; listed as S-SX): 5.5 % w/w
Q (nCg^−1) After mixing ([8]; listed as S-SX): −34.6 nCg^−1
Q (nCg^−1) Before mixing ([8]; listed as S-SX): 4.9 nCg^−1
bulk powder density ([9]; listed as S-SX): about 0.1 g/cm^3
magnitude of γS^D smaller than for M-SX and G-SX [2]: 15%
KA ([2]; listed as S-SX): 0.110
γs^D (mJ/m^2) ([2]; listed as S-SX): 32.476 mJ/m^2
−ΔGA^SP (kJ/mol) Acetone ([2]; listed as S-SX): 3.797 kJ/mol
−ΔGA^SP (kJ/mol) Chloroform ([2]; listed as S-SX): 0.153 kJ/mol
−ΔGA^SP (kJ/mol) Dichloromethane ([2]; probe dichloromethane): 2.808 kJ/mol
−ΔGA^SP (kJ/mol) Diethyl ether ([2]; listed as S-SX): 1.488 kJ/mol
−ΔGA^SP (kJ/mol) Ethyl acetate ([2]; listed as S-SX): 2.705 kJ/mol
−ΔGA^SP (kJ/mol) Tetrahydrofuran ([2]; listed as S-SX): 2.446 kJ/mol

salbutamol sulphate [Micronised, reference compound]
Electrostatic Charge (nC/g) [10]: −42.6 nC/g
Relative Powder Adhesion (to container walls) [11]: 18.6
Sympatec D4, 3 (μm) [12]: 3.04 μm
Aerosizer D4, 3 (μm) [13]: 2.69 μm
Enthalpy of Fusion [14]: 121.76 J/g
KA [15]: 0.892
γs^D mJm^−2 ([15]; 30° C., 0% RH): 58.61 mJm^−2
−ΔGA^SP (kJ/mol) Acetone ([15]; probe acetone): 12.57 kJ/mol
−ΔGA^SP (kJ/mol) Chloroform ([15]; probe chloroform): 1.79 kJ/mol
−ΔGA^SP (kJ/mol) Dioxane ([15]; probe dioxane): 15.96 kJ/mol
−ΔGA^SP (kJ/mol) Ethyl acetate ([15]; probe ethyl acetate): 16.01 kJ/mol
−ΔGA^SP (kJ/mol) Toluene ([15]; probe toluene): 3.42 kJ/mol

salbutamol sulphate [SEDS]
Electrostatic Charge (nC/g) [10]: −0.2 nC/g
Relative Powder Adhesion (to container walls) [11]: 1.0

salbutamol sulphate [Unprocessed]
Electrostatic Charge (nC/g) [10]: −23.1 nC/g
Relative Powder Adhesion (to container walls) [11]: 8.6
